Measured values: ChEMBL document CHEMBL1143554, “4-phenoxypiperidines: potent, conformationally restricted, non-imidazole histamine H3 antagonists” (J Med Chem, 2005)

Columns and labels:
Histamine H3 receptor [1] = target: T1, Histamine H3 receptor (Homo sapiens, UniProt Q9Y5N1); experiment: Mean functional activity against human H3 receptor; conditions: read-out: pA2 (converted)
Histamine H3 receptor [2] = target: T1, Histamine H3 receptor; experiment: Mean binding affinity for human H3 receptor

T1 sequence (Q9Y5N1 whole entry): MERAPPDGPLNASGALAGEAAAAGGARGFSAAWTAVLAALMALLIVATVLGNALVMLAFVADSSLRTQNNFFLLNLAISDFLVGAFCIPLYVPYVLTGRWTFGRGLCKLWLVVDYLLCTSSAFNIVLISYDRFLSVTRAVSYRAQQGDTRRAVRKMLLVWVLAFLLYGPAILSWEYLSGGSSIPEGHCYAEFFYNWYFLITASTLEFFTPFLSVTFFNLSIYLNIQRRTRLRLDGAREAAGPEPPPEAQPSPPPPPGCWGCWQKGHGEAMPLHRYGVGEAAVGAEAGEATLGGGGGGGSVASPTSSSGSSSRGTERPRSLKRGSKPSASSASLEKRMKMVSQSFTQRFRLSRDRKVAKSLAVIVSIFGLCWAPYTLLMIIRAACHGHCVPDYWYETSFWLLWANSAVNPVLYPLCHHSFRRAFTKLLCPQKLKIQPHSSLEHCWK

| SMILES | Kb (Histamine H3 receptor [1]) [nM] | Ki (Histamine H3 receptor [2]) [nM] |
| --- | --- | --- |
| CC(C)N1CCC(Oc2ccc(CN3CCN(c4ccccc4)CC3)cc2)CC1 | 1.02 | 2 |
| Cc1ccc2nc(-c3ccc(OCCCN4CCCCC4)cc3)cn2c1 | 2.04 |  |
| N#Cc1ccc(OC2CCN(C3CCCCC3)CC2)cc1 |  | 32.4 |
| CCC(C)N1CCC(Oc2ccc(C#N)cc2)CC1 (stereo not given) |  | 15.1 |
| CCCN1CCC(Oc2ccc(C#N)cc2)CC1 |  | 107 |
| CC(C)CN1CCC(Oc2ccc(C#N)cc2)CC1 |  | 66.1 |
| CC(C)N1CCC(Oc2ccc(CN3CCN(C)CC3)cc2)CC1 | 0.257 | 0.741 |
| N#Cc1ccc(OC2CCNCC2)cc1 |  | > 10000 |
| CC(C)N1CCC(Oc2ccc(CN(C)CCN(C)C)cc2)CC1 | 0.214 | 1.15 |
| CCCCN(C)Cc1ccc(OC2CCN(C(C)C)CC2)cc1 | 0.339 | 1.48 |
| CCC(CC)N1CCN(C(=O)CCC(=O)c2ccc(Cl)cc2)CC1 |  | 0.871 |
| C[C@@H]1CCCN1CCc1cc2cc(C#N)ccc2o1 |  | 0.447 |
| CC(CO)N1CCC(Oc2ccc(C#N)cc2)CC1 (stereo not given) |  | 759 |
| N#Cc1ccc(OCCCCCN2CCCC2)cc1 |  | 19.1 |
| CCN1CCC(Oc2ccc(C#N)cc2)CC1 |  | 81.3 |

The next lines start with the values.

| Kb (Histamine H3 receptor [1]) [nM] | Ki (Histamine H3 receptor [2]) [nM] | SMILES |
| --- | --- | --- |
| 0.331 | 1.41 | CC(C)N1CCC(Oc2ccc(CN3CCC(O)CC3)cc2)CC1 |
| 0.468 | 1.23 | CCN(CC)Cc1ccc(OC2CCN(C(C)C)CC2)cc1 |
| 0.324 | 1 | CC(C)N1CCC(Oc2ccc(CN3CCCN(C)CC3)cc2)CC1 |
| 0.813 | 1.45 | CC(C)N1CCC(Oc2ccc(CN3CCC(Cc4ccccc4)CC3)cc2)CC1 |
| 0.355 | 1.95 | CC(C)N1CCC(Oc2ccc(CN3CCCC3)cc2)CC1 |
| 1.17 | 3.02 | CC(C)N1CCC(Oc2ccc(CN(C)C)cc2)CC1 |
| 0.126 | 0.631 | CC(C)N1CCC(Oc2ccc(CN3CCCCC3)cc2)CC1 |
| 0.661 | 2 | CC(C)N1CCC(Oc2ccc(CN3CCN(Cc4ccccc4)CC3)cc2)CC1 |
| 0.457 | 1.62 | CC(C)N1CCC(Oc2ccc(CNC3CC3)cc2)CC1 |
| 0.174 | 1.7 | CC(C)N1CCC(Oc2ccc(CN3CCCCCC3)cc2)CC1 |
| 0.257 | 1 | CC(C)N1CCC(Oc2ccc(CN3CCC(CO)CC3)cc2)CC1 |
| 0.741 | 2.24 | CC(C)N1CCC(Oc2ccc(CNc3ccccn3)cc2)CC1 |
| 2.69 | 5.5 | CC(C)N1CCC(Oc2ccc(CNc3ccccc3)cc2)CC1 |
